# Measured values taken from patent publication US20250171463A1 (BIOGEN MA INC., priority 2022, published 2025).
# pIC50: −log10 of the molar value.
# Target: T1, EBP (Homo sapiens, UniProt Q15125)
# T1 construct: HEK293T cells were utilized as the source of EBP enzyme; endogenous in cells; host or cells: HEK293T
# Assay: EBP Functional Assay (EBP immunoaffinity LC-MS assay)
# Assay type: biochemical
# Conditions: EBP enzyme from HEK293T cells; 30 min with inhibitor, then zymosterol-d5, 37° C., 4 h; percent conversion to dehydrolathosterol-d5 by LC-APCI MRM MS
# In short: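 IC50 comes from a 4-parameter logistic fit of zymosterol-d5-to-product percent conversion, measured by LC-APCI MRM MS after sterol extraction. Compounds were preincubated 30 min with EBP from HEK293T cells before deuterated substrate was added for 4 h at 37° C; Tasin-1 served as reference.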
# T1 sequence (Q15125 whole entry): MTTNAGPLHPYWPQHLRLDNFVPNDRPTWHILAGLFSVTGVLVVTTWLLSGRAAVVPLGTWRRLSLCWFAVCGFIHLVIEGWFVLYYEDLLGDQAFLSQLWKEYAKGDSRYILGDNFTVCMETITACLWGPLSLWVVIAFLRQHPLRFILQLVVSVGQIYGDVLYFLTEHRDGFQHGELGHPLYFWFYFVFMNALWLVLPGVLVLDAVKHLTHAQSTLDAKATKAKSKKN
row,SMILES,pIC50
1,Cc1nc(C(C)(F)F)ccc1S(=O)(=O)N1CC2(CN(C3CCCOC3)C2)C1 (centres unmarked) [Example 80],5.40 to 6.60
2,Cc1nc(C(C)(F)F)ccc1S(=O)(=O)N1CC2(CN(CC3CCOCC3)C2)C1 [Example 81],> 7.00
3,Cc1nc(C(C)(F)F)ccc1S(=O)(=O)N1CC2(CN(C(C)C3CCOCC3)C2)C1 (centres unmarked) [Example 82],5.40 to 6.60
4,Cc1nc(C(C)(F)F)ccc1S(=O)(=O)N1CC2(CN(CC3(C)CCOCC3)C2)C1 [Example 83],6.60 to 7.00
5,Cc1nc(C(C)(F)F)ccc1S(=O)(=O)N1CC2(CN(CC3CCOC3)C2)C1 (centres unmarked) [Example 85],> 7.00
6,Cc1nc(C(C)(F)F)ccc1S(=O)(=O)N1CC2(CN(C(C)C3CCOC3)C2)C1 (centres unmarked) [Example 86],> 7.00
7,Cc1nc(C(C)(F)F)ccc1S(=O)(=O)N1CC2(CN(CC3COC3)C2)C1 [Example 87],> 7.00
8,Cc1nc(C(C)(F)F)ccc1S(=O)(=O)N1CC2(CN(C(C)C3COC3)C2)C1 (centres unmarked) [Example 88],6.60 to 7.00
9,Cc1nc(C(C)(F)F)ccc1S(=O)(=O)N1CC2(CN(CC3(C)COC3)C2)C1 [Example 89],> 7.00
10,"Cc1nc(C(C)(C)F)ccc1S(=O)(=O)N1CC2(CN(C3CC4(COC4)C3)C2)C1 [Example 92, 2-((6-(2-fluoropropan-2-yl)-2-methylpyridin-3-yl)sulfonyl)-6-(2-oxaspiro[3.3]heptan-6-yl)-2,6-diazaspiro[3.3]heptane]",> 7.00

# Results, then the molecule that gave them:
row,pIC50,SMILES
1,5.40 to 6.60,Cc1nc(C(C)(F)F)ccc1S(=O)(=O)N1CC2(CN(C3CCOC3)C2)C1 (centres unmarked) [Example 84]
2,6.60 to 7.00,"Cc1nc(C(F)F)ccc1S(=O)(=O)N1CC2(CN(C3CCOCC3)C2)C1 [Example 90, 2-((6-(difluoromethyl)-2-methylpyridin-3-yl)sulfonyl)-6-(tetrahydro-2H-pyran-4-yl)-2,6-diazaspiro[3.3]heptane]"
3,5.40 to 6.60,"Cc1nc(C(F)F)ccc1S(=O)(=O)N1CC2(CN(C3CC4(COC4)C3)C2)C1 [Example 91, 2-((6-(difluoromethyl)-2-methylpyridin-3-yl)sulfonyl)-6-(2-oxaspiro[3.3]heptan-6-yl)-2,6-diazaspiro[3.3]heptane]"
4,> 7.00,"Cc1nc(C(C)(C)F)ccc1S(=O)(=O)N1CC2(CN(C3CCOCC3)C2)C1 [Example 93, 2-((6-(2-fluoropropan-2-yl)-2-methylpyridin-3-yl)sulfonyl)-6-(tetrahydro-2H-pyran-4-yl)-2,6-diazaspiro[3.3]heptane]"
5,> 7.00,"Cc1nc(OC(F)F)ccc1S(=O)(=O)N1CC2(CN(C3CCOCC3)C2)C1 [Example 94, 2-((6-(difluoromethoxy)-2-methylpyridin-3-yl)sulfonyl)-6-(tetrahydro-2H-pyran-4-yl)-2,6-diazaspiro[3.3]heptane]"
6,6.60 to 7.00,"Cc1nc(OC(F)F)ccc1S(=O)(=O)N1CC2(CN(C3CC4(COC4)C3)C2)C1 [Example 95, 2-((6-(difluoromethoxy)-2-methylpyridin-3-yl)sulfonyl)-6-(2-oxaspiro[3.3]heptan-6-yl)-2,6-diazaspiro[3.3]heptane]"
7,6.60 to 7.00,"Cn1nc(C(F)F)cc1S(=O)(=O)N1CC2(CN(C3CCOCC3)C2)C1 [Example 96, 2-((3-(difluoromethyl)-1-methyl-1H-pyrazol-5-yl)sulfonyl)-6-(tetrahydro-2H-pyran-4-yl)-2,6-diazaspiro[3.3]heptane]"
8,5.40 to 6.60,"COc1cc(S(=O)(=O)N2CC3(CN(C4CCOCC4)C3)C2)n(C)n1 [Example 97, 2-((3-methoxy-1-methyl-1H-pyrazol-5-yl)sulfonyl)-6-(tetrahydro-2H-pyran-4-yl)-2,6-diazaspiro[3.3]heptane]"
9,> 7.00,"COc1ccc(S(=O)(=O)N2CC3(CN(C4CCOCC4)C3)C2)c(Cl)n1 [Example 98, 2-((2-chloro-6-methoxypyridin-3-yl)sulfonyl)-6-(tetrahydro-2H-pyran-4-yl)-2,6-diazaspiro[3.3]heptane]"
10,> 7.00,"COc1ncc(Cl)cc1S(=O)(=O)N1CC2(CN(C3CCOCC3)C2)C1 [Example 99, 2-((5-chloro-2-methoxypyridin-3-yl)sulfonyl)-6-(tetrahydro-2H-pyran-4-yl)-2,6-diazaspiro[3.3]heptane]"
